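All cell lines were grown in 96-well plates and treated with compound for 48 hours. Definition used: TGI = concentration required for complete inhibition of growth.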
Key:
Experiment in all cases: NCI anticancer screen, dose series, 48 h
U251 CNS = system: U251 CNS
MCF7 breast = system: MCF7 breast
SK-OV-3 ovarian = system: SK-OV-3 ovarian
NCI/ADR-RES ovarian = system: NCI/ADR-RES ovarian
K-562 leukemia = system: K-562 leukemia
T-47D breast = system: T-47D breast
MDA-MB-435 = system: MDA-MB-435
SF-295 CNS = system: SF-295 CNS
DU-145 prostate = system: DU-145 prostate
IGROV1 ovarian = system: IGROV1 ovarian

| Compound | TGI (U251 CNS) | TGI (MCF7 breast) | TGI (SK-OV-3 ovarian) | TGI (NCI/ADR-RES ovarian) | TGI (K-562 leukemia) | TGI (T-47D breast) | TGI (MDA-MB-435) | TGI (SF-295 CNS) | TGI (DU-145 prostate) | TGI (IGROV1 ovarian) |
| --- | --- | --- | --- | --- | --- | --- | --- | --- | --- | --- |
| COc1cc(C2c3cc4c(cc3OC3(OC)COC(=O)C23)OCO4)cc(OC)c1OC (stereo not given) | > 66.3 µM | > 56.8 µM | > 100 µM | 4.39 µM | 11 µM | > 100 µM | 0.68 µM | 0.479 µM | 6.51 µM | > 100 µM |
| COc1cc(/C=c2/c3ccccc3n3c2cc(-c2ccccc2)[n+]3C)cc(OC)c1OC | 13.6 µM | 20.6 µM | 23.2 µM | > 100 µM | 15.4 µM | 19.3 µM | 6.19 µM | 19.2 µM | 18.4 µM | 23 µM |
| CCOC(=O)C1=CC(C)(C(=O)OCC)Nc2c(nc(SC)n(C)c2=O)N1 (stereo not given) | > 10 µM | > 10 µM | > 10 µM | > 10 µM | > 10 µM | > 10 µM | > 10 µM | > 10 µM | > 10 µM | > 10 µM |
| CCCC(=O)Nc1cc(/C=C/C(=O)N2CC(CCl)c3c2cc([N+](=O)[O-])c2ccccc32)n(C)c1 (stereo not given) | > 100 µM | > 100 µM | > 100 µM | > 100 µM | > 100 µM | > 100 µM | > 100 µM | > 100 µM | > 100 µM | > 100 µM |
| CCCCCCCCCCCCCCCCCCOc1ccc(/C=C/C2=[N+](CCCl)CCO2)cc1 | > 100 µM | > 100 µM | > 100 µM | > 100 µM | > 100 µM | > 100 µM | > 100 µM | > 100 µM | > 100 µM | > 100 µM |
